“Also recorded” adds a separate entry of the source.
Legend:
Poly [dA] Poly [dT] = assay: Alkylation of DNA by reduced PBIs; assay type: biochemical; details: reduced PBI (H2, Pd on carbon), pH 7.4 tris buffer, 30° C., 24 h
Experimental: (§1) Alkylation of DNA by Reduced PBIs. To a mixture of 1–2 mg of DNA (poly[dA]. poly[dT], poly[dG]. poly[dC], poly[dA-dT]. poly[dT-dA]) in 2.0 mL of 0.05 M of pH 7.4 tris buffer and 2 mg of Pd on carbon was added a five-to-one base pair equivalent amount of the PBI dissolved in 0.5 mL of dimethylsulfoxide. The resulting solution was degassed under argon for 30 min., after which the mixture was purged with H2 for 10 min. The solution was then purged with argon for 10 min. and the placed in a 30° C. bath for 24 h. The reaction was opened to the air and the catalyst was removed with a Millex-PF […] syringe filter. The filtrate was adjusted to 0.3M acetate with a 3M stock solution of pH 5.1 acetate and the diluted with two volumes of ethanol. The mixture was chilled at −20° C. for 12 h and the DNA pellet collected by centrifuging at 12,000 g for 20 min. The pellet was redissolved in water and then precipitated and centrifuged again. The resulting pellet was suspended in ethanol, centrifuged, and dried.

Poly [dG] Poly [dC] = assay: Alkylation of DNA by reduced PBIs; assay type: biochemical; details: reduced PBI (H2, Pd on carbon), pH 7.4 tris buffer, 30° C., 24 h
Experimental: as §1

DT-diaphorase = assay: DT-Diaphorase reduction kinetics; assay type: biochemical; details: pH 7.4 tris.HCl, anaerobic, 30° C., 0.3 mM NADH, 14.5 nM enzyme active sites
Experimental: DT-Diaphorase Reduction Kinetics Studies. Kinetic studies were carried out in 0.05 M pH 7.4 tris.HCl buffer, under anaerobic conditions, employing Thunberg cuvettes. A 2 mM stock solution of the appropriate PBI or APBI was prepared in dimethyl sulfoxide (DMSO). To the top port was added the quinone stock and to the bottom port was added DT-diaphorase and NADH in the tris buffer. The top and bottom ports were purged with argon for 20 minutes and equilibrated to 30° C. The ports were then mixed and the reaction followed at 296 nm for 25 minutes to obtain initial rates. The concentrations upon after mixing were 0.3 mM NADH, 1 to 20×10^-5 M quinone, and 14.5 nM (based on flavin) of enzyme active sites. The value of Δε was calculated from the initial and final absorbance values for complete quinone reduction, usual value for Δε is 6000 to 8000 M−1 cm−1. The value of Δε was used to calculate Vmax in M sec-1. The results were fitted to a Lineweaver-Burke plot from which kcat/Km values were calculated based on 14.5 nM of active sites.

cancer cell lines = assay: Cytotoxicity (−log LC50) against cancer cell lines by cancer type; assay type: cell-based; details: for cytotoxicity (in words): cancer cell lines, FIG. 2 and FIG. 4
Source text: Each −log LC50 value is the average of up to eight values.
FIG. 4. illustrates the plots of −Log LC50 versus cancer type for S(−)-1, 2, 3. Each cancer type represents the average of six to eight different cancer cell lines.

Human tumor cells = assay: Hollow fiber assay (in vivo screen, National Cancer Institute); details: for Total Score (hollow fiber score): 12 cell lines × 2 sites × 2 doses, highest possible score 96; for Intraperitonal Score: fibers implanted intraperitoneally; for Intraperitonal Score / Subcutaneous Score: IP dosing QD×4, high and low dose, score of two per test with % T/C of 50 or less; for Subcutaneous Score: fibers implanted subcutaneously; for Cancer cell line types sensitive: hollow fiber assay
Experimental: Hollow fiber assays are carried out in the following way. Human tumor cells are cultivated in polyvinylidene fluoride hollow fibers, and a sample of each cell line is implanted into each of two physiological compartments (intraperitoneally and subcutaneously). Mice are treated with either a high or a low dose using a QD×4 schedule (four daily treatments) administered intraperitoneally. Altogether, twelve cell lines are studied resulting in 48 possible test combinations (12 cell lines×2 sites×2 doses). […] These compounds are covered by two patents. (Skibo, E. B. and Islam, I. Synthesis and Elucidation of Azamitosene and Iminoazamitosene. U.S. Pat. No. 5,015,742 1991; Skibo, E. B., Islam, I. and Alberts, D. S., Antineoplastic Agents and Methods of Using the Same. U.S. Pat. No. 5,246,955, 1993).

B-16 melanoma = B-16 melanoma model (syngraft) in C57/bl mice; assay type: in vivo; details: 1 and 3 mg/Kg IP on days 1, 5, and 9 after tumor implantation into front flank muscle
Experimental: These compounds were studied at two dose levels: 1 and 3 mg/Kg IP on days 1, 5, and 9 after tumor implantation into the front flank muscle. Shown in the bar graph is the area under the tumor versus time curve plotted against dose for each enantiomer.

Molecule | Vmax (DT-diaphorase) [nM/s] | Percentages of PBI Incorporation into DNA (Poly [dA] Poly [dT]) [%] | Percentages of PBI Incorporation into DNA (Poly [dG] Poly [dC]) [%] | Total Score (hollow fiber score) (Human tumor cells) | Intraperitonal Score (Human tumor cells) | Subcutaneous Score (Human tumor cells) | further results
3-Amino-6-azindinyl-2,3-dihydro-7-methyl-1H-pyrrolo[1,2-a]benzimidazole-5,8-dione [R(+)-B] | 14.6 | – | – | – | – | – | Percentages of PBI Incorporation into DNA (Poly [dA] Poly [dT]; listed as R(+)−B): 60%; Percentages of PBI Incorporation into DNA (Poly [dG] Poly [dC]; listed as R(+)−B): 105%
3-Amino-6-azindinyl-2,3-dihydro-7-methyl-1H-pyrrolo[1,2-a]benzimidazole-5,8-dione [S(−)-B] | – | – | – | – | – | – | Percentages of PBI Incorporation into DNA (Poly [dA] Poly [dT]; listed as S(−)−B): 186%; Percentages of PBI Incorporation into DNA (Poly [dG] Poly [dC]; listed as S(−)−B): 52%
3-Amino-6-azindinyl-2,3-dihydro-7-methyl-1H-pyrrolo[1,2-a]benzimidazole-5,8-dione [Yujungamycin B] | – | – | – | – | – | – | cytotoxicity (in words) (cancer cell lines): high potency; cytotoxicity (in words) (cancer cell lines; listed as 2): high cytotoxicity against non-small-cell lung, central nervous system, melanoma, ovarian, and renal cancers; change in cytotoxicity, 3-hydroxy changed to 3-amino (cancer cell lines; relative to the 3-hydroxy derivative): ˜million-fold change in cytotoxicity
3-Carbamido-6-aziridinyl-2,3-dihydro-7-methyl-1H-pyrrolo[1,2-a]benzimidazole-5,8-dione [R(+)-C] | 39.3 | 31 | 17 | – | – | – | –
3-Carbamido-6-aziridinyl-2,3-dihydro-7-methyl-1H-pyrrolo[1,2-a]benzimidazole-5,8-dione [S(−)-C] | 21.8 | 70 | 12.4 | – | – | – | –
CC(=O)OC1CCN2C1=NC1C(=O)C(N3CC3)=C(C)C(=O)C12 (centres unmarked) [PBI-A] | – | – | – | 48 | 40 | 8 | Cancer cell line types sensitive (Human tumor cells): melanoma, NSC lung cancer, breast cancer, and ovarian cancer; activity in the hollow fiber assay / in vivo (Human tumor cells): active in the hollow fiber assay
CC1=C(N2CC2)C(=O)c2nc3n(c2C1=O)CCC3OC(N)=O (centres unmarked) [PBI-B] | – | – | – | 30 | 24 | 6 | Cancer cell line types sensitive (Human tumor cells): melanoma, NSC lung cancer, breast cancer, and ovarian cancer; activity in the hollow fiber assay / in vivo (Human tumor cells): active in the hollow fiber assay
CC(=O)NC1CCn2c1nc1c2C(=O)C(C)=C(N2CC2)C1=O (stereo not drawn) [S(−)-A] | 47.6 | 17.4 | 6.6 | 52 | 38 | 14 | activity in B-16 melanoma model (area under the tumor versus time curve) (B-16 melanoma; listed as S(−) Yujungamycin A): failed to show much difference in activity between the enantiomers; also recorded: no apparent differences between the enantiomers; activity in B-16 melanoma model (area under the tumor versus time curve) (B-16 melanoma; listed as S(−)-Yujungamycin A): activity

— patent publication US6998413B1, “Treatment of neoplasms with yujungamycins” (priority 1999, dated 2006)
